The values that follow come from publication PMC3431846, “2,3-Dihydro-1H-cyclopenta[b]quinoline Derivatives as Acetylcholinesterase Inhibitors—Synthesis, Radiolabeling and Biodistribution” (International Journal of Molecular Sciences, 2012).

Structures can show the parent of a compound that is named as a salt.

In one data set the test system is acetylcholinesterase. To be noted: in words; cited from earlier work.
The nature of data set [1]: Biodistribution of radioactivity in rats after intravenous 99mTc-6a. The note with it: 99mTc-labelled, in words.
Protocol: For biodistribution studies, male Wistar rats weighing 190–260 g were used. Prior to the experiment, the animals were fasted overnight (to empty the bowels), but had free access to water. All animal experiments were approved by the Ethics Committee of the Faculty of Pharmacy, Charles University, Hradec Kralove.
The agent was administered to rats intravenously in a volume of 0.2 mL. During the course of the experiments, each animal was placed in an individual cage. At various time points after injection, the carotid artery was exposed under ether anesthesia and a blood sample was collected in glass tubes containing dry heparin. The rats were sacrificed and dissected.
The results were expressed as mean ± standard deviations of at least four animals.
The target in data set [2] is Acetylcholinesterase from Electrophorus electricus (electric eel) (Electrophorus electricus, UniProt O42275). In words: biochemical.
Chain of Acetylcholinesterase from Electrophorus electricus (electric eel) (O42275 24-633): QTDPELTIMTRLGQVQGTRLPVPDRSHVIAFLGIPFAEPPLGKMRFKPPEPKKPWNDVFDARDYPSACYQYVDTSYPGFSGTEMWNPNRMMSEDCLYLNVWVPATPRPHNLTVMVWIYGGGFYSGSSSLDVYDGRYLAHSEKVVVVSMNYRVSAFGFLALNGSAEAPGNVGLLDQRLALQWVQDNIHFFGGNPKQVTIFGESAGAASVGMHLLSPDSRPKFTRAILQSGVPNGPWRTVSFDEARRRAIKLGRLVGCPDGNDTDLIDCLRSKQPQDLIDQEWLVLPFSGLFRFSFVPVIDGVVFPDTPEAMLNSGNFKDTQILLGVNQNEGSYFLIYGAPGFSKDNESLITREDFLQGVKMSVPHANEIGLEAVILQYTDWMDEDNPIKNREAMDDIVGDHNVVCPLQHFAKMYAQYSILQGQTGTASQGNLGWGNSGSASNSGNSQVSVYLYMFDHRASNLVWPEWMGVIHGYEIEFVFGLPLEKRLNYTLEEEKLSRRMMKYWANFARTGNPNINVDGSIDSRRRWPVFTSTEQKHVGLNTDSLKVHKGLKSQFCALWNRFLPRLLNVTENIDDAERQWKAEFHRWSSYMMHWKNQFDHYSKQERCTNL
Data set [3] deals with Butyrylcholinesterase from equine serum (Equus caballus, UniProt P81908). The experiment in a line: biochemical.
Chain of Butyrylcholinesterase from equine serum (P81908 whole entry): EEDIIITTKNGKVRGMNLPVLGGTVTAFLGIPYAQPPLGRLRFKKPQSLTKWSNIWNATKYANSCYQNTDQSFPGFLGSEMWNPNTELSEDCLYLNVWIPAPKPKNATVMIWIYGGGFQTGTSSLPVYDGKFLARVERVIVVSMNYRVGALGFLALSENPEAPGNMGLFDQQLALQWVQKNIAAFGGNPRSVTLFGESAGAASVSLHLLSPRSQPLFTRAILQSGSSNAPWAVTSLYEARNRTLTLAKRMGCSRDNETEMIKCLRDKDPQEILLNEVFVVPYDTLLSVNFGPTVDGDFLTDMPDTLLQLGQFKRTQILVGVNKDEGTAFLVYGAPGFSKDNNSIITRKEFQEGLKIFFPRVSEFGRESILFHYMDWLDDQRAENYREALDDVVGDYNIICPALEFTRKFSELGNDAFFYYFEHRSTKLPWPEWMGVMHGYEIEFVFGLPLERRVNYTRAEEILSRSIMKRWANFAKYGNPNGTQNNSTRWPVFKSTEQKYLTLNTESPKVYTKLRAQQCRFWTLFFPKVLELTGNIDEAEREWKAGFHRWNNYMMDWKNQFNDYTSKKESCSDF

For orientation: IC50 means the midpoint of a concentration-inhibition curve. Low values mean inhibition by little substance, high ones a need for much substance.

As for `Nc1c2c(nc3cc(Cl)ccc13)CCCC2O` (stereo not shown) [6-chlorotacrin-1-ol], in the data set with acetylcholinesterase, the “potency compared with tacrine” value was “more potent than tacrine”. Turning to `Nc1c2c(nc3cc(F)ccc13)CCCC2O` (stereo not shown) [6-fluorotacrin-1-ol], the “potency compared with tacrine” value in the data set on acetylcholinesterase was “more potent than tacrine”. With `Cl.NNc1ccc(C(=O)NCCNc2c3c(nc4ccccc24)CCC3)cn1` [Compound 6a, 6-Hydrazino-N-[2-(2,3-dihydro-1H-cyclopenta[b]quinolin-9-ylamino)Ethyl]nicotinamide hydrochloride], the blood radioactivity clearance result in data set [1] was “comparatively rapid”. Moreover, the results for the IC50 in data set [2] and in data set [3] were 31.5 ± 1.9 nM and 164 ± 1.6 nM, respectively. For the molecule `NNc1ccc(C(=O)NCCCNc2c3c(nc4ccccc24)CCC3)cn1` [Compound 6b, 6-Hydrazino-N-[3-(2,3-dihydro-1H-cyclopenta[b]quinolin-9-ylamino)propyl]nicotinamide hydrochloride], the figures for the IC50 in data set [2] and in data set [3] were 19.3 ± 1.1 nM and 197 ± 3.4 nM, respectively. For `NNc1ccc(C(=O)NCCCCNc2c3c(nc4ccccc24)CCC3)cn1` [Compound 6c, 6-Hydrazino-N-[4-(2,3-dihydro-1H-cyclopenta[b]quinolin-9-ylamino)butyl]nicotinamide hydrochloride] the same measures were 22.4 ± 1.7 nM and 2650 ± 9.5 nM. The matching figures for `NNc1ccc(C(=O)NCCCCCNc2c3c(nc4ccccc24)CCC3)cn1` [Compound 6d, 6-Hydrazino-N-[5-(2,3-dihydro-1H-cyclopenta[b]quinolin-9-ylamino)pentyl]nicotinamide hydrochloride]: 7.84 ± 2.2 nM and 4240 ± 2.2 nM.

On to `NNc1ccc(C(=O)NCCCCCCNc2c3c(nc4ccccc24)CCC3)cn1` [Compound 6e, 6-Hydrazino-N-[6-(2,3-dihydro-1H-cyclopenta[b]quinolin-9-ylamino)hexyl]nicotinamide hydrochloride], for which the IC50 in data set [2] is 41.6 ± 1 nM; in data set [3], 16600 ± 17.5 nM. As for `NNc1ccc(C(=O)NCCCCCCCNc2c3c(nc4ccccc24)CCC3)cn1` [Compound 6f, 6-Hydrazino-N-[7-(2,3-dihydro-1H-cyclopenta[b]quinolin-9-ylamino)heptyl]nicotinamide hydrochloride], the figures for the IC50 in data set [2] and in data set [3] were 17.6 ± 0.8 nM and 22700 ± 20.6 nM, respectively. For `NNc1ccc(C(=O)NCCCCCCCCNc2c3c(nc4ccccc24)CCC3)cn1` [Compound 6g, 6-Hydrazino-N-[8-(2,3-dihydro-1H-cyclopenta[b]quinolin-9-ylamino)octyl]nicotinamide hydrochloride] the same measures were 5.17 ± 1.4 nM and 19600 ± 16.4 nM. With `NNc1ccc(C(=O)NCCCCCCCCCNc2c3c(nc4ccccc24)CCC3)cn1` [Compound 6h, 6-Hydrazino-N-[9-(2,3-dihydro-1H-cyclopenta[b]quinolin-9-ylamino)nonyl]nicotinamide hydrochloride], the IC50 in data set [2] is 3.65 ± 0.5 nM; in data set [3], 17100 ± 21.3 nM.
